Data published in ChEMBL document CHEMBL4706756, “Combination Therapy of RNA Interference and Small Molecules for Treating Hepatitis B Virus Infection” (ACS Med Chem Lett, 2021).
Activity calls are given as the source filed them. The calls are words filed in the database; no cut-off is given here.

What was measured:
Hepatitis B virus [1] = assay: Antiviral activity against HBV infected in CHB patient assessed as reduction in viral DNA level at 250 mg, po administered daily from 1 to 84 days in presence of RNAi component and NA; type: functional, organism-based; details: time 1-84 day
Hepatitis B virus [2] = assay: Antiviral activity against HBV infected in HBeAg-positive CHB patient assessed as reduction in HBsAg level at 250 mg, po administered daily from 1 to 84 days in presence of RNAi component and NA; type: functional, organism-based; details: time 1-84 day
Hepatitis B virus [3] = assay: Antiviral activity against HBV infected in HBeAg-negative CHB patient assessed as reduction in HBsAg level at 250 mg, po administered daily from 1 to 84 days in presence of RNAi component and NA; type: functional, organism-based; details: time 1-84 day
Hepatitis B virus [4] = assay: Antiviral activity against HBV infected in CHB patient assessed as reduction in HBeAg level at 250 mg, po administered daily from 1 to 84 days in presence of RNAi component and NA; type: functional, organism-based; details: time 1-84 day
Hepatitis B virus [5] = assay: Antiviral activity against HBV infected in CHB patient assessed as reduction in HBcrAg level at 250 mg, po administered daily from 1 to 84 days in presence of RNAi component and NA; type: functional, organism-based; details: time 1-84 day
Hepatitis B virus [6] = assay: Antiviral activity against HBV infected in CHB patient assessed as reduction in HBsAg level at 250 mg, po administered daily from 1 to 84 days in presence of RNAi component and NA relative to control; type: functional; set-up: scale not given: the % may be the effect or the level left; details: time 1-84 day
Hepatitis B virus [7] = assay: Antiviral activity against HBV infected in CHB patient assessed as reduction in viral RNA level at 250 mg, po administered daily from 1 to 84 days in presence of RNAi component and NA; type: functional, organism-based; details: time 1-84 day
[8] = Toxicity in HBV infected CHB patient at 250 mg, po administered daily from 1 to 84 days in presence of RNAi component and NA; type: organism-based; details: human, in vivo, time 1-84 day

With C[C@H](NS(=O)(=O)c1cc(C(=O)Nc2ccc(F)c(C#N)c2)n(C)c1)C(F)(F)F [BERSACAPAVIR] the Activity (Hepatitis B virus [1]) was “Active”, the Activity (Hepatitis B virus [2]) was “Active” and the Activity (Hepatitis B virus [3]) was “Active”. The Activity (Hepatitis B virus [4]) was “Active”, the Activity (Hepatitis B virus [5]) was “Active” and the Activity (Hepatitis B virus [6]) was 90%. For the same compound, the Activity (Hepatitis B virus [7]) was “Active” and the Activity [8] was “Non-Toxic”.
